Data as given in US9340532B2, “Methods and compositions for inhibiting CNKSR1” (PHUSIS THERAPEUTICS, INC., priority 2012, dated 2016).
Like-named read-outs stand apart in the source and are kept apart here.

What was measured:
[1] = system: H226 (KRAS wildtype cell line); assay: Proliferation Assay H226; format: cell-based; conditions: Homo sapiens, NCI-H226, n = 1
Method: (§1) The isogenic KRAS lines harboring G12D, G12C, and G12V were obtained from Horizon Discovery labs on a one year lease. These cells were cultured in McCoys media with 10% FBS to 80% confluency. Cells were then released from flasks via trypsinization and plated into 96-well plates at an initial density range of 2000 cells per well. Cells were allowed 24 hours to attach, and then the agents were added to the culture media at a range of concentrations from 0-100 μM. Cells were incubated for 72 hours with the drugs, and then viability was assessed using an MTS viability assay. Cells were exposed to MTS reagent (Promega) dissolved in PBS (Hyclone) at a concentration of 200 μL reagent/mL media for 2 hours. Absorbance was then read at 490 nm, and viability was expressed as a percentage normalized between the negative control (no cells plated) and the condition of cells with no drug added (100% viability) normalized as the upper limit of viability.
(§2) Our panel of 30 cell lines and an extensive characterization were obtained from Dr. John Minna (UTSW). All cell lines were cultured in RPMI 1640 with 10% FBS. Cells were treated with concentrations of agents at concentrations 0.01 to 50 μM and evaluated as described above. IC50's were determined using Excelfit.

[2] = system: A549 (KRAS mutant cell line); assay: Proliferation Assay A549; format: cell-based; conditions: Homo sapiens, N = 2 experiments
Method: as §1, §2

[3] = system: H1975 (KRAS wildtype cell line); assay: Proliferation Assay H1975; format: cell-based; conditions: Homo sapiens, NCI-H1975, n = 1
Method: as §1, §2

[4] = target: T1, CNK1 PH-domain (CNKSR1) (Homo sapiens, UniProt Q969H4); assay: SPR binding assay (Biacore T100), CNK1 PH-domain
T1 construct: The PH-domain His-fusion proteins (CNK1 and AKT1) were expressed and immobilized on a NTA chip; made in house
T1 sequence (Q969H4 403-502 limits assumed): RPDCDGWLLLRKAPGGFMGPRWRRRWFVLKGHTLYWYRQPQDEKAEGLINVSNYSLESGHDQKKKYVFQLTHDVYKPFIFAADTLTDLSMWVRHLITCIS
Method: (§3) All interaction analyses were done with a Biacore T100 Control Software v3.2, and BIAevaluation v4.1 analysis software (Biacore). The PH-domain His-fusion proteins (CNK1 and AKT1) were expressed and immobilized on a NTA chip to a level of 10,000 response units or less. Small molecule analytes at concentrations ranging from 50 μM to 0.010 μM were injected at a high flow rate (30 μL/min) DMSO concentrations in all samples and running buffer were 1-5% (v/v).
Other docking was performed using modeling algorithms with state-of-the-art commercial drug discovery software (Schrodinger suite). […] Additionally, ligand-based approaches provided an alternative to structure based drug discovery. Ligand-based virtual screening methodologies can take into account shape and electrostatics (like ROCS) and the pharmacophoric features (acceptor, donor, hydrophobic, aromatic, etc.) of its functional groups. […] SPR interaction analyses of all other compounds was undertaken using a Biacore T100 with Control and Evaluation software kit.

[5] = target: T2, AKT1 PH-domain (Homo sapiens, UniProt P31749); assay: SPR binding assay (Biacore T100), AKT1 PH-domain; conditions: for Kd: read-out: AKT KD
T2 construct: The PH-domain His-fusion proteins (CNK1 and AKT1) were expressed and immobilized on a NTA chip; made in house
Method: as §3
A commercially available docking package, GOLD (GOLD [3.2], CCDC: Cambridge, UK, 2007) was used to evaluate the docking of compounds 1-7 into the binding pocket, see e.g. Table 5. Other docking was performed using modeling algorithms with state-of-the-art commercial drug discovery software (Schrodinger suite). GLIDE was chosen as the docking algorithm used to select and optimize compounds, providing a GlideScore as a rough estimate of binding affinity that was used to rank and select the best compounds. Additionally, ligand-based approaches provided an alternative to structure based drug discovery. Ligand-based virtual screening methodologies can take into account shape and electrostatics (like ROCS) and the pharmacophoric features (acceptor, donor, hydrophobic, aromatic, etc.) of its functional groups. Inositol tetraphosphate (IP4) binding to the PH-domain of CNKSR1 provided a good starting point for shape screening. Both structure-based and ligand-based approaches were used to find novel compounds (Table 7) and to refine and improve lead compounds (Tables 8, and 9). SPR interaction analyses for Compounds 1 through 7 were performed with a Biacore 2000, using Biacore2000 Control Software v3.2 and BIAevaluation v4.1 analysis software (Biacore) as described in Mol Cancer Ther 7:2621 (2008). SPR interaction analyses of all other compounds was undertaken using a Biacore T100 with Control and Evaluation software kit.

[6] = system: H1373 (KRAS mutant cell line); assay: Proliferation Assay H1373; format: cell-based; conditions: Homo sapiens, NCI-H1373, N = 2 experiments
Method: as §1, §2

T2 sequence (P31749 5-108 limits assumed): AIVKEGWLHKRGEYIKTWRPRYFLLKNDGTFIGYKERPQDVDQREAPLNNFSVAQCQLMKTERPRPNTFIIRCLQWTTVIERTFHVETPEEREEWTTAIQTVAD

Row | IC50 [1] | IC50 [2] | IC50 [3] | Kd ([4]; Table 6, read-out: CNKS KD) | Surface Plasmon Resonance CNKSR1 binding (RU max) ([4]; date 12 09 13) | Surface Plasmon Resonance CNKSR1 stability (RU max post-injection) ([4]; date 12 09 13) | Kd ([5]; Table 6) | IC50 [6] | AKT KD ([5]; Table 7, curated diversity set) | AKT KD ([5]; Table 8) | Kd ([4]; Table 8, read-out: CNK KD) | Kd ([5]; Table 8) | Surface Plasmon Resonance CNKSR1 binding (RU max) ([4]; date 11 26 13) | Surface Plasmon Resonance CNKSR1 stability (RU max post-injection) ([4]; date 11 26 13) | Compound
1 | – | – | – | – | – | – | – | – | Bound | – | – | – | – | – | COc1ccc(OC)c(-c2cc(C(=O)O)c3nc(C)[nH]c3n2)c1 [Compound 34]
2 | – | – | – | – | – | – | – | – | Bound | – | – | – | – | – | Cc1c(Cl)ccc2c(C(=O)O)cc(-c3cccnc3)nc12 [Compound 64]
3 | – | – | – | – | – | – | – | – | Bound | – | – | – | – | – | Nc1cccc(-c2cc(C(=O)O)c3cc(Cl)ccc3n2)c1 [Compound 66]
4 | – | – | – | > 100 µM | – | – | – | – | – | – | – | – | – | – | Cc1ccc(-c2csc(Cn3nc(CC4CN=CCO4)c4ccccc4c3=O)n2)cc1 (centres unmarked) [Compound 80]
5 | > 100 µM | 100 µM | 80 µM | 109 µM | 0.316 RU * 100/Da | 0.154 RU * 100/Da | – | 95 µM | – | – | – | – | – | – | Cc1ccc(-c2csc(Cn3nc(CC(=O)NCCC(N)=O)c4ccccc4c3=O)n2)cc1 [Compound 81]
6 | > 100 µM | 51 µM | 70 µM | – | 1.304 RU * 100/Da | 0.544 RU * 100/Da | – | 65 µM | – | – | – | – | – | – | Cc1ccc(-c2csc(Cn3nc(CC(=O)NCC(N)=O)c4ccccc4c3=O)n2)cc1 [Compound 82]
7 | 65 µM | 38 µM | 40 µM | – | −0.380 RU * 100/Da | −0.127 RU * 100/Da | – | 60 µM | – | – | – | – | – | – | Cc1ccc(-c2csc(Cn3nc(CC(O)C[N+](=O)[O-])c4ccccc4c3=O)n2)cc1 (centres unmarked) [Compound 125]
8 | 19 µM | 27 µM | 27 µM | – | −0.166 RU * 100/Da | −0.031 RU * 100/Da | – | 16 µM | – | – | – | – | – | – | Cc1ccc(-c2csc(Cn3nc(CC(O)CN)c4ccccc4c3=O)n2)cc1 (centres unmarked) [Compound 126]
9 | > 100 µM | > 100 µM | > 100 µM | – | 3.050 RU * 100/Da | 2.868 RU * 100/Da | – | > 100 µM | – | – | – | – | – | – | Cc1ccc(-c2csc(Cn3nc(CC(=O)NS(C)(=O)=O)c4ccccc4c3=O)n2)cc1 [Compound 127]

The next lines start with the compound.

Row | Compound | IC50 [1] | IC50 [2] | IC50 [3] | Kd ([4]; Table 6, read-out: CNKS KD) | Surface Plasmon Resonance CNKSR1 binding (RU max) ([4]; date 12 09 13) | Surface Plasmon Resonance CNKSR1 stability (RU max post-injection) ([4]; date 12 09 13) | Kd ([5]; Table 6) | IC50 [6] | AKT KD ([5]; Table 7, curated diversity set) | AKT KD ([5]; Table 8) | Kd ([4]; Table 8, read-out: CNK KD) | Kd ([5]; Table 8) | Surface Plasmon Resonance CNKSR1 binding (RU max) ([4]; date 11 26 13) | Surface Plasmon Resonance CNKSR1 stability (RU max post-injection) ([4]; date 11 26 13)
10 | Cc1ccc(-c2csc(Cn3nc(NS(=O)(=O)c4cccs4)c4ccccc4c3=O)n2)cc1 [Compound 5] | > 100 µM | 90 µM | 80 µM | 51.3 µM | −0.695 RU * 100/Da | −0.158 RU * 100/Da | 34.2 µM | > 100 µM | – | – | – | – | – | –
11 | O=C(O)CCc1ccc(-c2ccc(Br)cc2)n1CCC(=O)O [Compound 67] | – | – | – | – | – | – | – | – | Bound | – | – | – | – | –
12 | COc1c(/C=C/C(=O)O)cc(NS(=O)(=O)c2cccs2)c2c1OCO2 [Compound 84, (E)-3-(4-methoxy-7-(thiophene-2-sulfonamido)benzo[d][1,3]dioxol-5-yl)acrylic acid] | > 100 µM | > 100 µM | > 100 µM | – | – | – | – | > 100 µM | – | No binding | – | – | – | –
13 | CCOC(=O)CCc1cc(NS(=O)(=O)c2cccs2)c2c(c1OC)OCO2 [Compound 85, ethyl 3-(4-methoxy-7-(thiophene-2-sulfonamido)benzo[d][1,3]dioxol-5-yl)propanoate] | > 100 µM | > 100 µM | > 100 µM | – | 1.026 RU * 100/Da | 1.515 RU * 100/Da | – | > 100 µM | – | – | > 500 µM | > 500 µM | – | –
14 | O=C(O)/C=C/c1cc(NS(=O)(=O)c2cccs2)c2c(c1O)OCO2 [Compound 89, (E)-3-(4-hydroxy-7-(thiophene-2-sulfonamido)benzo[d][1,3]dioxol-5-yl)acrylic acid] | > 100 µM | > 100 µM | > 100 µM | – | 1.350 RU * 100/Da | 1.401 RU * 100/Da | – | > 100 µM | – | – | 3.37 µM | – | – | –
15 | O=C(O)CCc1cc(NS(=O)(=O)c2cccs2)c2c(c1O)OCO2 [Compound 90, 3-(4-hydroxy-7-(thiophene-2-sulfonamido)benzo[d][1,3]dioxol-5-yl)propanoic acid] | > 100 µM | > 100 µM | > 100 µM | – | −7.809 RU * 100/Da | −3.766 RU * 100/Da | – | > 100 µM | – | – | – | – | – | –
16 | CN1CC(=O)N(/C=C/c2cc(NS(=O)(=O)c3cccs3)c3c(c2O)OCO3)C1=O [Compound 91] | > 100 µM | > 100 µM | > 100 µM | – | – | – | – | > 100 µM | – | – | – | – | −1.867 RU * 100/Da | 0.288 RU * 100/Da
17 | O=C1COC(=O)N1/C=C/c1cc(NS(=O)(=O)c2cccs2)c2c(c1O)OCO2 [Compound 100] | > 100 µM | > 100 µM | > 100 µM | – | – | – | – | > 100 µM | – | – | – | – | −1.240 RU * 100/Da | −0.026 RU * 100/Da
18 | Cc1ccc(-c2csc(Cn3nc(C4OC5CCOC54)c4ccccc4c3=O)n2)cc1 (centres unmarked) [Compound 124] | 95 µM | 50 µM | > 100 µM | – | −0.369 RU * 100/Da | −0.053 RU * 100/Da | – | 50 µM | – | – | – | – | – | –
19 | CN1CC(=O)N(/C=C/c2cc(N(S(=O)(=O)c3cccs3)S(=O)(=O)c3cccs3)c3c(c2O)OCO3)C1=O [Compound 128] | > 100 µM | > 100 µM | > 100 µM | – | −0.541 RU * 100/Da | −0.304 RU * 100/Da | – | > 100 µM | – | – | – | – | 1.409 RU * 100/Da | 0.456 RU * 100/Da
20 | CCOC(=O)/C=C/c1cc(NS(=O)(=O)c2cccs2)c2c(c1OC)OCO2 [Compound 129] | – | – | – | – | – | – | – | – | – | – | – | – | −0.133 RU * 100/Da | −0.041 RU * 100/Da
21 | COc1cc(NS(=O)(=O)c2cccs2)c(SC)c(/C=C/N2C(=O)CN(C)C2=O)c1O [Compound 132] | 60 µM | 72 µM | > 100 µM | – | – | – | – | 60 µM | – | – | – | – | 0.457 RU * 100/Da | 0.906 RU * 100/Da
22 | COc1cc(NS(=O)(=O)c2cccs2)c(SC)c(/C=C/N2C(=O)COC2=O)c1O [Compound 133] | 95 µM | > 100 µM | > 100 µM | – | – | – | – | > 100 µM | – | – | – | – | −1.537 RU * 100/Da | −0.123 RU * 100/Da
